Structures are written as SMILES.

Consider 37 molecules from patent EP1673354B1, “ARYLINDENOPYRIDINES AND ARYLINDENOPYRIMIDINES AND THEIR USE AS ADENOSINE A2A RECEPTOR ANTAGONISTS” (Ortho-McNeil Pharmaceutical, Inc., priority 2003, dated 2005).

In assay [1] the target is T1, human adenosine A2a receptors (Homo sapiens, UniProt P29274).
T1 construct: expressed in transfected cells; host or cells: CHO-K1 cells with cAMP-inducible beta-galactosidase reporter gene
The assay is described as follows: Adenosine A2a receptor functional assay, antagonist mode (cAMP-inducible beta-galactosidase reporter, 50 nM NECA). The format is cell-based. The conditions noted are these: CHO-K1 cells, read-out: Ki (nM) A2a antagonist function. On the procedure:
Adenosine A2a Receptor Functional Assay
CHO-K1 cells overexpressing human adenosine A2a receptors and containing cAMP-inducible beta-galactosidase reporter gene were seeded at 40-50K/well into 96-well tissue culture plates and cultured for two days. On assay day, cells were washed once with 200 µL assay medium (F-12 nutrient mixture/0.1 % BSA). For agonist assay, adenosine A2a receptor agonist NECA was subsequently added and cell incubated at 37°C, 5% CO2 for 5 hrs before stopping reaction. In the case of antagonist assay, cells were incubated with antagonists for 5 minutes at R.T. followed by addition of 50 nM NECA. Cells were then incubated at 37°C, 5% CO2 for 5 hrs before stopping experiments by washing cells with PBS twice. 50 µL 1X lysis buffer (Promega, 5X stock solution, needs to be diluted to 1X before use) was added to each well and plates frozen at -20°C. For β-galactosidase enzyme colorimetric assay, plates were thawed out at room temperature and 50 µL 2X assay buffer (Promega) added to each well. Color was allowed to develop at 37°C for 1 h or until reasonable signal appeared. Reaction was then stopped with 150 µL 1 M sodium carbonate. […] Data was analyzed in Microsoft Excel and GraphPad Prism programs.

In the next assay the target is T2, Adenosine A1 receptor (Homo sapiens, UniProt P30542).
T2 sequence (P30542 1-326): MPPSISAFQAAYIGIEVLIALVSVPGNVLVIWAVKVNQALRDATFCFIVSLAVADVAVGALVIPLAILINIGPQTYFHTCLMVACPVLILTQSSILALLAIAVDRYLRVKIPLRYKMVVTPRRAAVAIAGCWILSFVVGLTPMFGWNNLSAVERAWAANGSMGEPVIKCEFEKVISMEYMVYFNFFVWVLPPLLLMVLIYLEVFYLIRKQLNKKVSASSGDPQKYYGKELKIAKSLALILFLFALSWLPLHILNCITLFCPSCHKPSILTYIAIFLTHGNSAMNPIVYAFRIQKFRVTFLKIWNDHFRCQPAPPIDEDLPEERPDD
Put plainly: A1 antagonist function (no method described). In kind it is cell-based.

Assay [2] deals with T3, human A2a adenosine receptor (Homo sapiens, UniProt P29274).
T3 construct: purchased PerkinElmer RB-HA2a; host or cells: HEK293 cell plasma membrane
T3 sequence (P29274 whole entry): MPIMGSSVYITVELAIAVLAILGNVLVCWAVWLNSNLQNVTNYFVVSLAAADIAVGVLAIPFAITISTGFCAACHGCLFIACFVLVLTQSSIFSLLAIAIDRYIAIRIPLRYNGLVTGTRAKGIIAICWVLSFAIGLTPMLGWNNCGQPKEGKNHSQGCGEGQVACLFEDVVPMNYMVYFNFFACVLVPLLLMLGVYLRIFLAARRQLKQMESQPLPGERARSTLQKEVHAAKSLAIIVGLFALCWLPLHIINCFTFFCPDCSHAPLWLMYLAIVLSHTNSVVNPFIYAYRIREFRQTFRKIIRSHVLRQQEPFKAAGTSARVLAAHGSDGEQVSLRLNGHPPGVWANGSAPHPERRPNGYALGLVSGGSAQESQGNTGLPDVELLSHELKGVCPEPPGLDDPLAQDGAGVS
The assay is described as follows: Ligand binding assay for adenosine A2a receptor ([3H]CGS21680, HEK293 plasma membrane). The conditions noted are these: radioligand [3H]CGS21680, HEK293 membranes, room temperature 2 hours; read-out: Ki (nM) A2a binding. On the procedure: Ligand Binding Assay for Adenosine A2a Receptor
Ligand binding assay of adenosine A2a receptor was performed using plasma membrane of HEK293 cells containing human A2a adenosine receptor (PerkinElmer, RB-HA2a) and radioligand [^3H]CGS21680 (PerkinElmer, NET1021). Assay was set up in 96-well polypropylene plate in total volume of 200 µl by sequentially adding 20 µL1:20 diluted membrane, 130 µLassay buffer (50 mM Tris·HCl, pH7.4 10 mM MgCl2, 1 mM EDTA) containing [^3H] […] Nonspecific binding was determined by […] NECA. Reaction was carried out at room temperature for 2 hours before filtering through 96-well GF/C filter plate pre-soaked in 50 mM Tris·HCl, pH7.4 containing 0.3% polyethylenimine. Plates were then washed 5 times with cold 50 mM Tris·HCl, pH7.4, dried and sealed at the bottom. Microscintillation fluid 30 µl was added to each well and the top sealed. Plates were counted on Packard Topcount for [^3H]. Data was analyzed in Microsoft Excel and GraphPad Prism programs.

T1 sequence (P29274 whole entry): as above

With `C=CCCc1nc(N)c(C#N)c2c1C(=O)c1ccccc1-2` [Compound 94], the Ki is more than 1000 nM in assay [1], 36 nM on Adenosine A1 receptor and 49.5 nM in assay [2].

In the case of `COc1ccc(-c2nc(N)nc3c2C(=O)c2ccccc2-3)cc1` [Compound 2], the Ki in assay [1] was 6.87 nM; at Adenosine A1 receptor, 5.32 nM; in assay [2] it was 2.03 nM.

For `Nc1nc(-c2ccccc2)c2c(c1C(=O)O)-c1ccccc1C2=O` [Compound 65], the Ki in assay [1] is 245 nM; at Adenosine A1 receptor, 163 nM; in assay [2] it was 575 nM.

In the case of `N#Cc1c(N)nc(-c2ccco2)c2c1-c1ccccc1C2=O` [Compound 63, 9H-indeno[2,1-c]pyridine-4-carbonitrile, 3-amino-1-furan-2-yl-9-oxo-], the figures for the Ki (at Adenosine A1 receptor; in assay [2]) were 0.18 nM and 0.59 nM, respectively.

Take `CCCn1cc(-c2nc(N)nc3c2C(=O)c2ccccc2-3)ccc1=O` [Compound 34]: in assay [2], the Ki is 560 nM.

Consider `Nc1nc(-c2ccco2)c2c(n1)-c1ccccc1C2` [Compound 4], for which the Ki in assay [1] turned out to be 2.63 nM; at Adenosine A1 receptor, 15.6 nM; in assay [2] it was 0.885 nM.

Turning to `CCc1nc(N)c(C#N)c2c1C(=O)c1ccccc1-2` [Compound 85], the Ki in assay [2] was determined as 508 nM.

Turning to `Nc1nc(-c2ccco2)c2c(n1)-c1c(F)cccc1C2=O` [Compound 36], the Ki in assay [1] is 0.052 nM; at Adenosine A1 receptor, 2.52 nM; in assay [2], 4.37 nM.

On to `Nc1nc(-c2ccccc2)c2c(n1)-c1cccc(CN3CCOCC3)c1C2=O` [Compound 51], for which the Ki in assay [1] came to 3.26 nM; on Adenosine A1 receptor it was 32.9 nM; in assay [2] it was 36.8 nM.

As to `Nc1nc(-c2ccco2)c2c(n1)-c1c(N)cccc1C2=O` [Compound 21], the values for the Ki (in assay [1]; on Adenosine A1 receptor; in assay [2]) were 0.053 nM, 3.51 nM and 0.376 nM, respectively.

For `Nc1nc(-c2ccco2)c2c(n1)-c1cc(C(F)(F)F)ccc1C2=O` [Compound 23], the values for the Ki (in assay [1]; at Adenosine A1 receptor; in assay [2]) were 0.55 nM, 1.47 nM and 13.6 nM, respectively.

As to `Nc1nc(-c2ccco2)c2c(n1)-c1cc(Cl)c(Cl)cc1C2=O` [Compound 25], the Ki in assay [1] worked out at 5.69 nM; on Adenosine A1 receptor, 17.4 nM; in assay [2] it was 173 nM.

For the molecule `N#Cc1c(N)nc(-c2cccc(F)c2)c2c1-c1ccccc1C2=O` [Compound 67], the Ki in assay [1] was 0.618 nM; on Adenosine A1 receptor it was 4.37 nM; in assay [2], 13.4 nM.

For the molecule `CCN(Cc1ccncc1)Cc1cccc2c1C(=O)c1c(-c3ccccc3)nc(N)nc1-2` [Compound 61], in assay [2], the Ki was determined as 29.8 nM.

Consider `C[C@H](O)[C@@H](O)c1cccc2c1-c1nc(N)nc(-c3ccccc3)c1C2=O` [Compound 33], for which the Ki in assay [1] is 0.34 nM; on Adenosine A1 receptor, 0.021 nM; in assay [2] it was 0.175 nM.

In the case of `Nc1nc(-c2ccco2)c2c(n1)-c1c(Cl)ccc(Cl)c1C2=O` [Compound 26], the Ki was found to be 0.88 nM in assay [1], 3.13 nM on Adenosine A1 receptor and 34.6 nM in assay [2].

Regarding `CSc1nc(N)nc2c1C(=O)c1ccccc1-2` [Compound 41], the Ki in assay [1] was 575 nM; at Adenosine A1 receptor, more than 3000 nM; in assay [2] it was 88 nM.

In the case of `Nc1nc(-c2cccc(F)c2)c2c(n1)-c1ccccc1C2=O` [Compound 39], the Ki in assay [1] was 0.926 nM; on Adenosine A1 receptor it was 2.31 nM; in assay [2], 4.92 nM.

Consider `COc1cccc2c1C(=O)c1c(-c3ccco3)nc(N)nc1-2` [Compound 37], for which the values for the Ki (in assay [1]; on Adenosine A1 receptor; in assay [2]) were 0.143 nM, 3.07 nM and 2.86 nM, respectively.

For the molecule `COC(=O)CN(C)Cc1cccc2c1C(=O)c1c(-c3ccccc3)nc(N)nc1-2` [Compound 56], the Ki in assay [1] came to 6.81 nM; on Adenosine A1 receptor, 25.8 nM; in assay [2], 25.7 nM.

Regarding `Nc1nc(-c2ccccc2)c2c(n1)-c1ccccc1C2=O` [Compound 10, 2-amino-4-phenyl-indeno[1,2-d]pyrimidin-5-one], the Ki on Adenosine A1 receptor was 1.2 nM.

For the molecule `CCN(CC)Cc1cccc2c1C(=O)c1c(-c3ccccc3)nc(N)nc1-2` [Compound 52], the Ki in assay [1] was 18.3 nM; at Adenosine A1 receptor, 107 nM; in assay [2], 94.4 nM.

As for `Nc1nc(-c2cc(F)cc(F)c2)c2c(n1)-c1ccccc1C2=O` [Compound 29], the Ki was 1.42 nM in assay [1], 4.27 nM at Adenosine A1 receptor and 20.9 nM in assay [2].

Turning to `CN1CCN(Cc2cccc3c2C(=O)c2c(-c4ccccc4)nc(N)nc2-3)CC1` [Compound 50], the results for the Ki (in assay [1]; on Adenosine A1 receptor; in assay [2]) were 11.3 nM, 94.2 nM and 80.1 nM, respectively.

Regarding `N#Cc1c(N)nc(-c2cccnc2)c2c1-c1ccccc1C2=O` [Compound 68], the Ki stood at 0.73 nM in assay [1], 34.8 nM on Adenosine A1 receptor and 7.59 nM in assay [2].

On to `N#Cc1c(N)nc(-c2ncc[nH]2)c2c1-c1ccccc1C2=O` [Compound 75], for which the Ki in assay [1] amounted to 1.51 nM; at Adenosine A1 receptor it was 78.3 nM; in assay [2], 23.7 nM.

Take `CN(C)CCN(C)Cc1cccc2c1C(=O)c1c(-c3ccccc3)nc(N)nc1-2` [Compound 49]: the values for the Ki (in assay [1]; at Adenosine A1 receptor; in assay [2]) were 40.1 nM, 119 nM and 51.1 nM, respectively.

For the molecule `CC(=O)N1CCN(Cc2cccc3c2C(=O)c2c(-c4ccccc4)nc(N)nc2-3)CC1` [Compound 59], the Ki in assay [1] came out at 7.94 nM; at Adenosine A1 receptor, 34.1 nM; in assay [2], 40.8 nM.

For `Nc1nc(-c2ccco2)c2c(n1)-c1ccc(Br)cc1C2=O` [Compound 16], the values for the Ki (in assay [1]; on Adenosine A1 receptor; in assay [2]) were 0.169 nM, 5.22 nM and 1.75 nM, respectively.

In the case of `CN1CCN(C(=O)c2c(N)nc(-c3ccco3)c3c2-c2ccccc2C3=O)CC1` [Compound 80], the Ki came out at 15.9 nM in assay [1], 56 nM on Adenosine A1 receptor and 69.1 nM in assay [2].

As to `CN(C)CCOC(=O)c1c(N)nc(-c2ccccc2)c2c1-c1ccccc1C2=O` [Compound 81, 9H-indeno[2,1-c]pyridine-4-carboxylic acid, 3-amino-1-phenyl-9-oxo-, 2-dimethylamino-ethyl ester], the results for the Ki (in assay [1]; on Adenosine A1 receptor; in assay [2]) were 29 nM, 33.6 nM and 229 nM, respectively.

On to `COc1ccc(-c2nc(N)nc3c2C(=O)c2ccccc2-3)cn1` [Compound 30], for which the Ki in assay [1] came out at 10.2 nM; at Adenosine A1 receptor, 4.05 nM; in assay [2], 31.5 nM.

On to `Nc1nc(-c2nccs2)c2c(n1)-c1ccccc1C2=O` [Compound 7], for which the Ki in assay [1] came out at 0.49 nM; on Adenosine A1 receptor, 6.89 nM.

Take `CN(Cc1ccco1)Cc1cccc2c1C(=O)c1c(-c3ccccc3)nc(N)nc1-2` [Compound 62]: the Ki in assay [2] was determined as 58.4 nM.

As for `CN(C)CCN(C)C(=O)c1c(N)nc(-c2ccco2)c2c1-c1ccccc1C2=O` [Compound 77, 9H-indeno[2,1-c]pyridine-4-carboxylic acid, 3-amino-1-furan-2-yl-9-oxo-, (2-dimethylamino-ethyl)-methyl-amide], the values for the Ki in assay [1] and in assay [2] were 0.68 nM and 6.25 nM, respectively.

Take `CC(C)(C)OC(=O)NC1CCN(Cc2cccc3c2C(=O)c2c(-c4ccccc4)nc(N)nc2-3)CC1` [Compound 60]: the Ki in assay [2] was determined as 34.3 nM.

For `CC(CN(C)C)NC(=O)c1c(N)nc(-c2ccco2)c2c1-c1ccccc1C2=O` (centres unmarked) [Compound 78, 9H-indeno[2,1-c]pyridine-4-carboxylic acid, 3-aminol-furan-2-yl-9-oxo-, (2-dimethylamino-1-methyl-ethyl)-amide], the values for the inhibition constant Ki in assay [1] and in assay [2] were 1.58 nM and 17.6 nM, respectively.
